In patent US20040156869A1, “2-substituted quinazolin-4-ylamine analogues” (Neurogen Corporation, priority 2002, published 2004):

The molecules below were run against human capsaicin receptor (VR1) (Homo sapiens, UniProt Q8NER1) (assay: Capsaicin receptor binding assay ([3H]RTX competition, VR1-transfected HEK293 membranes)).
Chain of human capsaicin receptor (VR1) (Q8NER1 whole entry): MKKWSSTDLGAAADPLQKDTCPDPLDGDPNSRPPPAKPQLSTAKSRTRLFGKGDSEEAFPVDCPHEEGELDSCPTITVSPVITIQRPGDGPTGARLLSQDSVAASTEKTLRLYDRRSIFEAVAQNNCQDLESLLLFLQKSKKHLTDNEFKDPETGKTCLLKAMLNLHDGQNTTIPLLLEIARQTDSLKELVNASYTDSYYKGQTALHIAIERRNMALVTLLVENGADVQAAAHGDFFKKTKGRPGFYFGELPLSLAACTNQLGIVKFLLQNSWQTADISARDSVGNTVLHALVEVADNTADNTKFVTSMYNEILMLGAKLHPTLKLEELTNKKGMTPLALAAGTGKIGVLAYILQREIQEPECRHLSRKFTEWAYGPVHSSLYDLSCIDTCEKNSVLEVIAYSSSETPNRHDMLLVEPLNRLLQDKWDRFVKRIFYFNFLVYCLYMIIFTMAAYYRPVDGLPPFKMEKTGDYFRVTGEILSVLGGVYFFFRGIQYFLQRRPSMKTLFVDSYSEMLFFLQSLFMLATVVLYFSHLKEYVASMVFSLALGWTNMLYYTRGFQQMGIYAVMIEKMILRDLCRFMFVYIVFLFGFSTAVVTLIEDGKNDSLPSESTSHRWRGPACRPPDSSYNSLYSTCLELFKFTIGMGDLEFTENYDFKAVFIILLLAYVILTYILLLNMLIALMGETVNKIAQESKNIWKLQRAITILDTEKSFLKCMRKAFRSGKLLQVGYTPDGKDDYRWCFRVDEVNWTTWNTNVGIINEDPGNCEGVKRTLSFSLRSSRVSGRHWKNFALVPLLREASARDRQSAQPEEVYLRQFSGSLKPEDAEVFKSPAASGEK

Ki, < 1000 nM:
FC(F)(F)c1ccc(Nc2cc(CN3CC=CCC3)nc3nc(-c4ncccc4C(F)(F)F)ccc23)cc1 [Compound 816, [2-(3,6-Dihydro-2H-pyridin-1-ylmethyl)-7-(3-trifluoromethyl-pyridin-2-yl)-[1,8]naphthyridin-4-yl]-(4-trifluoromethyl-phenyl)-amine]
COCc1nc(Nc2ccc(OC(F)(F)F)cc2)c2ccc(-c3ncccc3C(F)(F)F)nc2n1 [Compound 188, [2-Methoxymethyl-7-(3-trifluoromethyl-pyridin-2-yl)-pyrido[2,3-d]pyrimidin-4-yl]-(4-trifluoromethoxy-phenyl)-amine]
CC1CN(CCCc2nc(Nc3ccc(C(F)(F)F)nc3)c3ccc(-c4ncccc4C(F)(F)F)cc3n2)CC(C)O1 (stereo not drawn) [Compound 544, [2-[3-(2,6-Dimethyl-morpholin-4-yl)-propyl]-7-(3-trifluoromethyl-pyridin-2-yl)-quinazolin-4-yl]-(6-trifluoromethyl-pyridin-3-yl)-amine]
